The Kd is the concentration at which binding is half-saturated.

The text below walks through data of publication PMC6265452, “An auxin controls bacterial antibiotics production” (Nucleic Acids Research, 2018).

Read-outs that look alike come from different tables or passages of the source.

Test [1] concerns the target T1, AdmX (Serratia plymuthica, UniProt P0DV33). The test can be described thus: ITC (also DSF shift of […]°C, in vitro transcription repression). The test is classed as binding.
Test [2] deals with T1, AdmX. The test is described as above. It is filed as binding. The source holds these as a separate data set.

T1 sequence (P0DV33 whole entry): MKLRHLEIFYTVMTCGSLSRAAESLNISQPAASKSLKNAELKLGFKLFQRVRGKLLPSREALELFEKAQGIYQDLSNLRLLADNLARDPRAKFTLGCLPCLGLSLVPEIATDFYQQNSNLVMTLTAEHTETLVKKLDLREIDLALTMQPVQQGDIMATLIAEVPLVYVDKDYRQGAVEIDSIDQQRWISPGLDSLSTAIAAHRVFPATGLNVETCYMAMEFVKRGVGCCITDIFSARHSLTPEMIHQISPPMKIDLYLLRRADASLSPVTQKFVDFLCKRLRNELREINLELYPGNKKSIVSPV

In the case of `O=C(O)Cc1c[nH]c2ccccc12` [IAA, indole-3-acetic acid], at AdmX [1], the Kd turned out to be 60.9 µM.
Consider `O=C(O)C(=O)Cc1c[nH]c2ccccc12` [IPA, indole-3-pyruvic acid], for which the Kd on AdmX [2] stood at 1.1 µM.
